{
  "source": "patent US11266715B2",
  "about": "“C3A receptor agonists for use against ischemic brain injury, stroke, traumatic brain injury, spinal cord injury and neurodegenerative disorders” (priority 2016, dated 2022)",
  "key": {"[1]": {"test_system": "mice subjected to neonatal HI injury", "assay": "Object recognition test after neonatal HI injury, 3 days intranasal treatment", "assay_type": "in vivo, mouse", "protocol": "In the short-term study (3 days of intranasal treatment), 3 groups of WT mice were used; animals subjected to neonatal HI injury and treated with either C3a (HI-C3a, n=18) or PBS (HI-PBS, n=18) and sham-operated animals treated with PBS (SHAM-PBS, n=19). These mice were tested in an open field and object recognition test (ORT) at P50-P54 and brains were collected at P55 (FIG. 8A).\nNeonatal HI injury was induced on postnatal day 9 (P9), as previously described with modifications for mice (Hedtjärn et al., 2002; Rice et al., 1981; Sheldon et al., 1998). Mice were anesthetized with 3.5% isoflurane (Baxter Medical, Kista, Sweden) for induction and 1.5% thereafter, in 1:1 oxygen and nitrous oxide. The left common carotid artery was dissected and permanently ligated with a prolene suture (6.0). The incision was closed and infiltrated with lidocaine (Xylocain®, Astra Zeneca, Gothenburg, Sweden). Mice were returned to the dam for 1 hour and then placed in a chamber with humidified air at 36° C. for 10 min, then exposed to humidified 10% oxygen in nitrogen for 30 min at 36° C., and then kept in humidified air at 36° C. for 10 min before being returned to the dam. Sham animals were subjected to an incision in the neck on P9. These pups were also removed from the dam for the time duration that injured animals stayed in the chamber, but remained instead in a warming tray at 36° C. under normal oxygen conditions. At postnatal day 21 (P21) mice were weaned and group housed with same sex littermates.\nPurified human C3a (Complement Technology Inc., Tyler, Tex., USA) was diluted in sterile phosphate buffered saline (PBS) to a concentration of 200 nM, and a total of 8 μl i.e. […] (4 μl/nostril; corresponding to ca. 2.56 μg/kg body weight) of peptide solution or PBS was given intranasally to awake and hand-restrained mice held in a supine position. Solutions were administered through a pipette tip, drop-wise in 2 μl-portions divided by 1 min intervals to allow for absorption. […] C3a or PBS was given every 24 hours for three (short-term study) or seven (long-term study) days starting 1 h after HI induction, i.e. between P9 and P11 or P9 and P15, respectively. Mice in each litter were randomly assigned to C3a or PBS treatment. Sham animals received PBS. The investigators carrying out behavioural studies and analysing data were blinded to treatment group.\nThe object recognition test is based on the innate preference of mice to explore a novel object rather than a familiar one. Therefore, animals that remember the familiar object will spend more time exploring the novel object (Leger et al., 2013). From 3 days before starting the test, mice were daily handled for 2 min to minimize the possible stress due the researcher interaction. All experiments were performed at the same time of the day, between 9 am and […], and inside of a plastic box of 50×50×50 cm dimensions where the light intensity was dim and equal in all parts of the apparatus. […] Prior to the familiarization session, during which two identical objects were introduced, mice were habituated to the apparatus for 10 min during 3 consecutive days. Activity on the first habituation day was recorded as an open field test to assess locomotor and exploratory activities. During the familiarization session, two identical 250 ml bottles filled with shredded paper were placed at an equal distance from the arena walls (approximately 5 cm). […]"}, "serum carboxypeptidases": {"test_system": "serum carboxypeptidases", "conditions": "systemically administered C3a; cited from earlier work"}},
  "data": [
    {"substance": "C3a: Purified human C3a peptide (Complement Technologies), C3a receptor agonist, amino acid sequence SEQ ID NO: 1", "values": [
      {"measurement": "time exploring novel vs familiar object, long-term memory (24 h)", "setting": "[1]; C3a treated mice p<0.05", "result": "significantly longer time exploring the novel compared to familiar object"},
      {"measurement": "exploratory behavior in the familiarization phase", "setting": "[1]; intranasal C3a 3 days from 1 h post-HI", "result": "not altered"},
      {"measurement": "time exploring the novel object, short-term memory (6 h), vs PBS-treated mice post-HI", "setting": "[1]; p<0.01", "result": "spent more time exploring the novel object"},
      {"measurement": "total object exploration time, long-term memory (24 h), vs PBS", "setting": "[1]; p<0.05", "result": "longer"},
      {"measurement": "total object exploration time, short-term memory (6 h), vs PBS", "setting": "[1]; p<0.05", "result": "longer total object exploration time"},
      {"measurement": "stability in serum", "setting": "serum carboxypeptidases", "result": "rapid inactivation by serum carboxypeptidases"}
    ]}
  ]
}
